From PMC11053447, “Human ABC and SLC Transporters: The Culprit Responsible for Unspecific PSMA-617 Uptake?” (Pharmaceuticals, 2024)
Like-named read-outs stand apart in the source and are kept apart here.

Tests used:
[1] = target: MDR1 (Homo sapiens, UniProt P08183); conditions: for Relative inhibition / ATP dependent transport / Relative ATP dependent transport: NMQ probe; for ATP dependent transport / Relative ATP dependent transport: mean (n=3) ± SD
Method: The incubations were carried out in the presence of 4 mM ATP or AMP to distinguish between transporter-mediated uptake and passive diffusion into the vesicles. […] Afterwards, the reaction mixtures were pre-incubated for 15 min at 37 °C for MRP1 or at 32 °C for BCRP, MDR1 and MRP4, respectively. The transporter assay was initiated through the addition of 25 μL of pre-warmed 12 mM MgATP (or 12 mM AMP in assay buffer as a background control). The reactions were quenched through the addition of 200 μL of ice-cold washing buffer and immediate filtration via glass fiber filters mounted onto a 96-well plate (filter plate). The filters were washed (5 × 200 μL of ice-cold washing buffer) and dried, and the amount of probe substrate inside the filtered vesicles was determined using LSC. The experiments were conducted in triplicate.
Calculation of ATP-dependent transport and inhibition for vesicular transport inhibition
For all wells the amount of the translocated probe substrate was determined in counts per minute (cpm).
ATP-dependent transport (pmol/mg protein/min) is calculated for each concentration using the following
𝐴𝑐𝑐𝐴𝑇𝑃 ∙ 𝑉 ∙ 𝐶𝐶 𝐴𝑐𝑐𝐴𝑀𝑃 ∙𝑉 ∙𝐶𝐶
𝐴𝑇𝑃 − 𝑑𝑒𝑝𝑒𝑛𝑑𝑒𝑛𝑡 𝑎𝑐𝑐𝑢𝑚𝑢𝑙𝑎𝑡𝑖𝑜𝑛 = ( 𝑇𝐶𝑃𝑀 𝑠𝑢𝑏) − ( 𝑇𝐶𝑃𝑀 𝑠𝑢𝑏)
• AccATP: probe substrate accumulation with ATP (cpm)
• AccAMP: probe substrate accumulation with AMP (cpm)
• Tcpm: cpm in dosing solution V: volume per well (µL)
• CCsub: probe substrate concentration (µM)
• Prot: total protein per well (mg)
• t: incubation time (min)
Relative ATP-dependent transport (%) values were calculated using the following equation:
𝑅𝑒𝑙𝑎𝑡𝑖𝑣𝑒 𝐴𝑇𝑃 − 𝑑𝑒𝑝𝑒𝑛𝑑𝑒𝑛𝑡 𝑡𝑟𝑎𝑛𝑠𝑝𝑜𝑟𝑡 (%) = 𝐴 − 𝐵 ∙ 100
• A: amount of translocated substrate in the presence of test substance (TS) and ATP
• B: amount of translocated substrate in the presence of test substance (TS) and AMP
• C: amount of translocated substrate in the presence of solvent and ATP
• D: amount of translocated substrate in the presence of solvent and AMP
Relative inhibition (%) is calculated by setting probe substrate transport in the absence of test substance as
𝑅𝑒𝑙𝑎𝑡𝑖𝑣𝑒 𝑖𝑛ℎ𝑖𝑏𝑖𝑡𝑖𝑜𝑛 (%) = 𝐴𝑐𝑐𝑆𝑝𝑒𝑐𝑖𝑓𝑖𝑐,𝑥 ∙100
• Accspecific,x: transporter specific accumulation for a given sample (pmol/mg/min)
• Accspecific,vehicle: transporter specific accumulation for a solvent control (pmol/mg/min)
Data are expressed as mean (n=3)
N-methyl quinidine (NMQ) measured in the vesicular transport inhibition assay.
Nominal ATP Relative ATP Relative
Compound concentration [µM] dependent transport dependent transport inhibition [%]
[pmol/mg/min] [% of control]
Data are expressed as mean (n=3) ± SD.

[2] = target: T1, human OAT3 (Homo sapiens, UniProt Q8TCC7); assay: SLC transporter substrate assay, HEK293-OAT3-LV vs control HEK293-Mock-LV cells; conditions: 20 min
T1 sequence (Q8TCC7 1-542): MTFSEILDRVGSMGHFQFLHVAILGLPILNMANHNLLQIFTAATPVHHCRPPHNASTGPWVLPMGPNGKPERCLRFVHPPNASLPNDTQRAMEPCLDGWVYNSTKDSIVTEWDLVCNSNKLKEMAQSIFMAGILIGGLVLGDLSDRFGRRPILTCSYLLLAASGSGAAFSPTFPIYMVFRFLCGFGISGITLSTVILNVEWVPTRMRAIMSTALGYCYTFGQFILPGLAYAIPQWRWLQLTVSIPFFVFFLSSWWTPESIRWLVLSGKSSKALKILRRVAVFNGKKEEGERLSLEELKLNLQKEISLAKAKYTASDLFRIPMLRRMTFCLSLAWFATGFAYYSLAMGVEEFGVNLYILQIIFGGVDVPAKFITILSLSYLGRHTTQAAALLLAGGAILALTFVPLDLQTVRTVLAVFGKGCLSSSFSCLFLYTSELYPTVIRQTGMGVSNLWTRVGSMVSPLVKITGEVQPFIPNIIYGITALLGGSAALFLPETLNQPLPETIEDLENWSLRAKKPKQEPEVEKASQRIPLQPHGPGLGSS

[3] = target: T2, human MATE1 (Homo sapiens, UniProt Q96FL8); assay: SLC transporter substrate assay, MDCKII-MATE1-Fin vs control MDCKII-CAT-Fin cells
T2 sequence (Q96FL8 1-570): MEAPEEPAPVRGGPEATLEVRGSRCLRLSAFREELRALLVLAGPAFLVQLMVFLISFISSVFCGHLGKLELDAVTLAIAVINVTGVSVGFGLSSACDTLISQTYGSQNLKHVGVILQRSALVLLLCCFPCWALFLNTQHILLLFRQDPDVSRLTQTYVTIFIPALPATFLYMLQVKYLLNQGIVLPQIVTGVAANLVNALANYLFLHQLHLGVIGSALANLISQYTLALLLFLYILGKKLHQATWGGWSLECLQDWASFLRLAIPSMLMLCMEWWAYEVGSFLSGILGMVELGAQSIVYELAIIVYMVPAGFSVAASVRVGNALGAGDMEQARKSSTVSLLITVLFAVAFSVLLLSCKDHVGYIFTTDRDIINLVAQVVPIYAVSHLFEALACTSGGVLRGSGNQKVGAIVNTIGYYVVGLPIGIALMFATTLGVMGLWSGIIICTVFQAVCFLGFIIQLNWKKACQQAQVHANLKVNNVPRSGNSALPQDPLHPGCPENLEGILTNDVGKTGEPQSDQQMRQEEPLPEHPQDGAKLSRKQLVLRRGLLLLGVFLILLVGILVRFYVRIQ
Method: The described cells were plated onto standard 24-well tissue culture plates at densities of 5 × 10^5 cells/well. […] Before starting the experiment, the cells were prepared by removing the medium and washing the cells twice with 300 µL of assay buffer. […] The cells were lysed by adding 300 µL of 0.1N NaOH, they were incubated for 10 min at 37 °C and 100 µL samples were taken from all the wells.
The amount of protein in each well was quantified using the BCA kit for protein determination (Sigma-Aldrich, St Louis, MO, USA). Positive controls were performed using a separate 96-well plate format according to Table S8 in SI4.
SI4. Results of transporter substrate assays (SLC)
Table S8: Parameters of positive controls, control cell lines and plating for SLC transporters assays.
KH: Krebs-Henseleit buffer, HBSS: Hank's balanced salt solution, MES: 2 -(N-morpholino) ethanesulfonic acid, cGMP:
Guanosine cyclic phosphate, E3S: Estrone -3-sulfate, Gly-Sar: Glycylsarcosine, MPP+: 1-methyl-4-phenylpyridinium.
Calculation of fold accumulation values for SLC transporter substrate assays The fold accumulation value was defined as the ratio of uptake of the test substance (TS) or probe substrate into transfected and control cells. If the fold accumulation is > 2 and can be inhibited by a known inhibitor of the transporter, the test substance can be considered as a substrate of the respective transporter.
Fold accumulation = UPTTRP
• UPTTRP: accumulated amount of test substance (TS) or probe substrate in transfected cells normalized by protein content […]
• UPTCTRL: accumulated amount of test substance (TS) or probe substrate in control cells normalized by protein content […]
4.1 Multidrug and toxin extrusion protein MATE1
(MDCKII-MATE1-Fin) and control cells (MDCKII-CAT-Fin) applying 2- and 20-minute incubation periods, measured in SLC transporter substrate assay. […] Concentrations are nominal. […]
control cells (MDCKII-CAT-Fin) applying 2- and 20-minute incubation periods, measured in SLC transporter substrate […]
Compound Nominal In MATE1 Fold

[4] = 0.03 µM nominal + Probenecid 500 µM
[5] = 0.30 µM nominal + Probenecid 500 µM

Chain of MDR1 (P08183 whole entry): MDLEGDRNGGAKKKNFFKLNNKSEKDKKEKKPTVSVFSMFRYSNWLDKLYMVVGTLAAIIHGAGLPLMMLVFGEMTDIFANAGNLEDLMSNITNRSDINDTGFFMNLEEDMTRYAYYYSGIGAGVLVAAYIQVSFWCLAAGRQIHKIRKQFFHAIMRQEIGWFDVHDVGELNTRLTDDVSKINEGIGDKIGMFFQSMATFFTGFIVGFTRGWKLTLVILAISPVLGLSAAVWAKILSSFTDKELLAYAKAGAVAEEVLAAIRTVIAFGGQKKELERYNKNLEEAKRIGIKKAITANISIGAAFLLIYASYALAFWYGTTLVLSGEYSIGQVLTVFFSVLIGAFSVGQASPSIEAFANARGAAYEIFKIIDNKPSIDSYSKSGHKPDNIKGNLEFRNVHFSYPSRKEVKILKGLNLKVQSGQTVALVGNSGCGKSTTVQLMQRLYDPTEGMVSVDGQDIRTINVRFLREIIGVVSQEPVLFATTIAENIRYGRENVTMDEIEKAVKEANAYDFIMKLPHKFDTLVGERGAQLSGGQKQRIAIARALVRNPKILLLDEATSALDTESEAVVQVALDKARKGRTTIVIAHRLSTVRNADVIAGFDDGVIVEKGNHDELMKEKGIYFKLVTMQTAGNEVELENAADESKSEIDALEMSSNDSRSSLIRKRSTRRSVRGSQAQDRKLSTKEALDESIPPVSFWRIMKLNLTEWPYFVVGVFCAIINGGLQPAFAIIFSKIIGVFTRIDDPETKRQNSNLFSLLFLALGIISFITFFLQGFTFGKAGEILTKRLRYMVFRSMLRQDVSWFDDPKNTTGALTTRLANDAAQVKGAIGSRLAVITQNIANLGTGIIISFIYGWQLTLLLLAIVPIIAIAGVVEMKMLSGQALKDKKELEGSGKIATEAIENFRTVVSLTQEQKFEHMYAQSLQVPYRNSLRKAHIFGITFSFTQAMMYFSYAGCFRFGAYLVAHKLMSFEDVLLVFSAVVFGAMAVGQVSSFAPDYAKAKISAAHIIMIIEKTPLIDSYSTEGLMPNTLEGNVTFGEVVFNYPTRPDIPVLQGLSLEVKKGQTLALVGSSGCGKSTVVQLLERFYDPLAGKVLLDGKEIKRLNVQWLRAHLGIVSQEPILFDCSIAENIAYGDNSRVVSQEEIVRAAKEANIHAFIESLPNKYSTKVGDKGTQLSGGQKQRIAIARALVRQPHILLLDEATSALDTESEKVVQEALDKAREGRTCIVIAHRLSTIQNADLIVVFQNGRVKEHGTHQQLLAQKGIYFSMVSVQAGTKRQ

In the case of `[3H]C(c1ccc2ccccc2c1)C([3H])(NC(=O)C1CCC(CNC(=O)CN2CCN(CC(=O)[O-])CCN(CC(=O)[O-])CCN(CC(=O)[O-])CC2)CC1)C(=O)NCCCCC(NC(=O)NC(CCC(=O)O)C(=O)O)C(=O)O.[Lu+3]` (stereo not drawn) [([α,β-^3H]Nal)Lu-PSMA-617], the “Inhibitor assessment (MDR1)” value ([1]; 0.30 and 3.00 µM, inhibition >20% defined as significant) is reported as “no inhibitor”, the Relative inhibition ([1]; test substance 0.30 µM nominal) is reported as 8% and the ATP dependent transport ([1]; test substance 0.30 µM nominal) is reported as 4902.67 ± 183.91 pmol/mg/min. For the same molecule, the “Relative ATP dependent transport” value ([1]; test substance 0.30 µM nominal) was 91.93 ± 3.56 % of control, the Relative inhibition ([1]; test substance 3.00 µM nominal) was -5% and the ATP dependent transport ([1]; test substance 3.00 µM nominal) was 5625.67 ± 230.64 pmol/mg/min. The “Relative ATP dependent transport” value ([1]; test substance 3.00 µM nominal) was 105.48 ± 4.44 % of control, the “Accumulation in OAT3 transporter expressing cells” value [2, 4] was 0.05 ± 0.01 pmol/mg protein and the “Accumulation in control cells” value [2, 4] was 0.03 ± 0.01 pmol/mg protein. The “Accumulation, active transport” value [2, 4] was 0.02 ± 0.01 pmol/mg protein, the Fold accumulation [2, 4] was 1.56 and the “Accumulation in OAT3 transporter expressing cells” value ([2]; 0.03 µM nominal, no inhibitor) was 0.07 ± 0.01 pmol/mg protein. For the same molecule, the “Accumulation in control cells” value ([2]; 0.03 µM nominal, no inhibitor) was 0.03 ± 0.00 pmol/mg protein, the “Accumulation, active transport” value ([2]; 0.03 µM nominal, no inhibitor) was 0.03 ± 0.01 pmol/mg protein and the Fold accumulation ([2]; 0.03 µM nominal, no inhibitor) was 1.96. For the same molecule, the “Accumulation in OAT3 transporter expressing cells” value [2, 5] was 0.74 ± 0.15 pmol/mg protein, the “Accumulation in control cells” value [2, 5] was 0.29 ± 0.07 pmol/mg protein and the “Accumulation, active transport” value [2, 5] was 0.45 ± 0.17 pmol/mg protein. For the same molecule, the Fold accumulation [2, 5] was 2.52, the “Accumulation in OAT3 transporter expressing cells” value ([2]; 0.30 µM nominal, no inhibitor) was 0.60 ± 0.13 pmol/mg protein and the “Accumulation in control cells” value ([2]; 0.30 µM nominal, no inhibitor) was 0.29 ± 0.06 pmol/mg protein. The “Accumulation, active transport” value ([2]; 0.30 µM nominal, no inhibitor) was 0.31 ± 0.14 pmol/mg protein, the Fold accumulation ([2]; 0.30 µM nominal, no inhibitor) was 2.09 and the “Max. transporter-specific fold accumulation, without inhibitor” value ([2]; 0.3 µM) was 2.09. For the same molecule, the “Uptake via transporter (OAT3)” value ([2]; absence and presence of probenecid) was “not taken up”, the “Max. transporter-specific fold accumulation, with inhibitor” value ([2]; Probenecid, 0.3 µM) was 2.52 and the “Accumulation in MATE1 transporter expressing cells” value ([3]; 0.03 µM nominal, 2 min) was 0.07 ± 0.01 pmol/mg protein. For the same molecule, the “Accumulation in control cells” value ([3]; 0.03 µM nominal, 2 min) was 0.12 ± 0.01 pmol/mg protein, the “Accumulation, active transport” value ([3]; 0.03 µM nominal, 2 min) was -0.05 ± 0.02 pmol/mg protein and the Fold accumulation ([3]; 0.03 µM nominal, 2 min) was 0.60. The “Accumulation in MATE1 transporter expressing cells” value ([3]; 0.03 µM nominal, 20 min) was 0.09 ± 0.00 pmol/mg protein, the “Accumulation in control cells” value ([3]; 0.03 µM nominal, 20 min) was 0.19 ± 0.02 pmol/mg protein and the “Accumulation, active transport” value ([3]; 0.03 µM nominal, 20 min) was -0.10 ± 0.02 pmol/mg protein. For the same molecule, the Fold accumulation ([3]; 0.03 µM nominal, 20 min) was 0.49, the “Accumulation in MATE1 transporter expressing cells” value ([3]; 0.30 µM nominal, 2 min) was 0.67 ± 0.05 pmol/mg protein and the “Accumulation in control cells” value ([3]; 0.30 µM nominal, 2 min) was 0.82 ± 0.11 pmol/mg protein. For the same molecule, the “Accumulation, active transport” value ([3]; 0.30 µM nominal, 2 min) was -0.15 ± 0.12 pmol/mg protein, the Fold accumulation ([3]; 0.30 µM nominal, 2 min) was 0.81 and the “Accumulation in MATE1 transporter expressing cells” value ([3]; 0.30 µM nominal, 20 min) was 0.77 ± 0.12 pmol/mg protein. For the same molecule, the “Accumulation in control cells” value ([3]; 0.30 µM nominal, 20 min) was 1.02 ± 0.12 pmol/mg protein, the “Accumulation, active transport” value ([3]; 0.30 µM nominal, 20 min) was -0.26 ± 0.17 pmol/mg protein and the Fold accumulation ([3]; 0.30 µM nominal, 20 min) was 0.75. For the same molecule, the “Substrate assessment (MATE1)” value ([3]; 0.03, 0.30 µM, 2, 20 min) was “no in vitro substrate” and the “Max. transporter-specific fold accumulation, without inhibitor” value ([3]; 2 min, 0.3 µM) was 0.81.
